This is an account of results in PubChem BioAssay AID330 (DTP/NCI, 2004).

Values joined by “and” are separate entries in the source; they are usually repeats but may differ in a detail not shown here. Identical values can stand only once. Inconclusive results and toxic doses are left out.

For this test, the system named is P388 leukemia ip, CD2F1 mice, survival T/C. The test can be described thus: NCI In Vivo Anticancer Drug Screen. Data for tumor model P388 Leukemia (intraperitoneal) in CD2F1 (CDF1) mice. The note with it: endpoint: median survival time, higher = longer survival. The gist of the method:
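Mice carrying the transplanted tumor received test compound or vehicle. Survival was recorded in each group, and the value is the treated-group measurement divided by that of the vehicle-treated control group.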

The mark [1] stands for this setting: dose: 50.0 mg/kg/injection, schedule: Q01DX005 (ip), vehicle: Klucel (hydroxypropylcellulose) (HPC).
Where [2] appears, read: dose: 100.0 mg/kg/injection, schedule: Q01DX005 (ip), vehicle: Klucel (hydroxypropylcellulose) (HPC).
Setting [3] is: dose: 200.0 mg/kg/injection, schedule: Q01DX005 (ip), vehicle: Klucel (hydroxypropylcellulose) (HPC).
Setting [4] is: dose: 50.0 mg/kg/injection, schedule: Q01DX005 (ip), vehicle: saline with Tween-80.
Setting [5] is: dose: 100.0 mg/kg/injection, schedule: Q01DX005 (ip), vehicle: saline with Tween-80.
The mark [6] stands for this setting: dose: 50.0 mg/kg/injection, schedule: Q01DX009 (ip), vehicle: Klucel (hydroxypropylcellulose) (HPC).
[7] abbreviates: dose: 100.0 mg/kg/injection, schedule: Q01DX009 (ip), vehicle: Klucel (hydroxypropylcellulose) (HPC).
Where [8] appears, read: dose: 200.0 mg/kg/injection, schedule: Q01DX009 (ip), vehicle: Klucel (hydroxypropylcellulose) (HPC).
The mark [9] stands for this setting: dose: 12.5 mg/kg/injection, schedule: Q01DX005 (ip), vehicle: saline with Tween-80.

Take `COC(=O)C1=C(C(=O)OC)P(I)(c2ccccc2)(c2ccccc2)N(C)C1(c1ccccc1)c1ccccc1`: the T/C under setting [1] was 100 % of control, the T/C under setting [2] was 100 % of control and the T/C under setting [3] is 90 % of control.
Consider `CCOc1cc2c(cc1C(C)c1ccccc1OC)OCO2` (centres undefined), for which the T/C by setting is: under setting [4], 100 % of control; under setting [5], 98 % of control; (dose: 200.0 mg/kg/injection, schedule: Q01DX005 (ip), vehicle: saline with Tween-80) 96 % of control.
Regarding `O=[N+]([O-])c1ccc(Sc2ncccn2)cc1`, the T/C is 108 % of control (dose: 25.0 mg/kg/injection, schedule: Q04DX002 (ip), vehicle: suspension in saline); 94 % of control (dose: 50.0 mg/kg/injection, schedule: Q04DX002 (ip), vehicle: suspension in saline); 101 % of control (dose: 100.0 mg/kg/injection, schedule: Q04DX002 (ip), vehicle: suspension in saline); 100 % of control (dose: 200.0 mg/kg/injection, schedule: Q04DX002 (ip), vehicle: suspension in saline); 96 % of control (dose: 400.0 mg/kg/injection, schedule: Q04DX002 (ip), vehicle: suspension in saline).
Consider `O=C(C(=O)N1CCC(O)CC1)c1c[nH]c2ccccc12`, for which the T/C reads like this: under setting [6], 98 % of control; under setting [7], 101 % of control; under setting [8], 100 % of control.
Consider `CC(=O)CC(=O)N/N=C(N)/C(C#N)=N/N(C)c1ccccc1`, for which the T/C is, setting by setting: (dose: 100.0 mg/kg/injection, schedule: Q04DX002 (ip), vehicle: saline with Tween-80) 97 % of control; (dose: 200.0 mg/kg/injection, schedule: Q04DX002 (ip), vehicle: saline with Tween-80) 94 % of control; (dose: 400.0 mg/kg/injection, schedule: Q04DX002 (ip), vehicle: saline with Tween-80) 96 % of control.
In the case of `COc1ccc2c(c1)CN(Cc1c(Cl)cccc1Cl)CO2`, the T/C is, setting by setting: (dose: 25.0 mg/kg/injection, schedule: Q01DX005 (ip), vehicle: Klucel (hydroxypropylcellulose) (HPC)) 98 % of control; under setting [1], 115 % of control and 97 % of control; under setting [2], 103 % of control and 92 % of control; under setting [3], 89 % of control.
As to `CCOC(=O)C1(CC)C(=O)C=C(c2ccccc2)CC1c1ccccc1` (centres undefined), the T/C under setting [7] was 99 % of control; the T/C under setting [8] was 94 % of control; the T/C (dose: 400.0 mg/kg/injection, schedule: Q01DX009 (ip), vehicle: Klucel (hydroxypropylcellulose) (HPC)) is 94 % of control.
With `CC(=O)Nc1cc2c(cc1Br)-c1ccccc1C2O` (centres undefined), the T/C was 100 % of control (dose: 0.63 mg/kg/injection, schedule: Q01DX009 (ip), vehicle: saline with Tween-80); 109 % of control (dose: 1.25 mg/kg/injection, schedule: Q01DX009 (ip), vehicle: saline with Tween-80); 109 % of control (dose: 2.5 mg/kg/injection, schedule: Q01DX009 (ip), vehicle: saline with Tween-80); 90 % of control (dose: 5.0 mg/kg/injection, schedule: Q04DX003 (ip), vehicle: saline with Tween-80); 104 % of control (dose: 10.0 mg/kg/injection, schedule: Q04DX003 (ip), vehicle: saline with Tween-80); 90 % of control (dose: 20.0 mg/kg/injection, schedule: Q01DX009 (ip), vehicle: saline with Tween-80). Further, under “dose: 20.0 mg/kg/injection, schedule: Q04DX003 (ip), vehicle: saline with Tween-80”, the T/C is 100 % of control.
In the case of `C/C(=N\NC(=S)N1CCN(c2ncccn2)CC1)c1ccccn1`, the T/C runs as follows: (dose: 6.25 mg/kg/injection, schedule: Q01DX005 (ip), vehicle: saline with Tween-80) 119 % of control; under setting [9], 119 % of control.
In the case of `CCNCc1nc2sc3c(c2c(=O)[nH]1)CCCC3`, the T/C was 105 % of control (dose: 50.0 mg/kg/injection, schedule: Q01DX009 (ip), vehicle: saline with Tween-80); 94 % of control (dose: 100.0 mg/kg/injection, schedule: Q01DX009 (ip), vehicle: saline with Tween-80); 99 % of control (dose: 200.0 mg/kg/injection, schedule: Q01DX009 (ip), vehicle: saline with Tween-80).
As to `COc1cc2c(cc1O)C1CC(CC3CCCCN31)OC(=O)/C=C\c1ccc(O)c-2c1` (centres undefined), the T/C runs as follows: (dose: 25.0 mg/kg/injection, schedule: Q04DX003 (ip), vehicle: saline) 100 % of control; (dose: 50.0 mg/kg/injection, schedule: Q04DX003 (ip), vehicle: saline) 107 % of control and 109 % of control; (dose: 100.0 mg/kg/injection, schedule: Q04DX003 (ip), vehicle: saline) 102 % of control and 110 % of control and 121 % of control; (dose: 200.0 mg/kg/injection, schedule: Q04DX003 (ip), vehicle: saline) 100 % of control and 102 % of control and 105 % of control.
Take `CCCCCCNP(=O)(N1CC1)N1CC1`: the T/C is, setting by setting: (dose: 3.13 mg/kg/injection, schedule: Q04DX003 (ip), vehicle: saline) 104 % of control; (dose: 10.0 mg/kg/injection, schedule: Q01DX009 (ip), vehicle: saline) 177 % of control; (dose: 12.5 mg/kg/injection, schedule: Q04DX003 (ip), vehicle: saline with Tween-80) 159 % of control; (dose: 20.0 mg/kg/injection, schedule: Q01DX009 (ip), vehicle: saline) 227 % of control; (dose: 25.0 mg/kg/injection, schedule: Q04DX003 (ip), vehicle: saline with Tween-80) 218 % of control.
As for `COc1ccccc1C1C(C#N)C(=O)NC(=O)C1C#N` (centres undefined), the T/C is, setting by setting: under setting [6], 113 % of control; under setting [7], 105 % of control; under setting [8], 105 % of control.
Regarding `C=C(C)C1C/C=C(\C)CC/C=C(\C)CC/C=C(\C)CC1` (centres undefined), the T/C (dose: 18.75 mg/kg/injection, schedule: Q01DX009 (ip), vehicle: saline + Tween-80 + alcohol) was 93 % of control; the T/C (dose: 37.5 mg/kg/injection, schedule: Q01DX009 (ip), vehicle: saline + Tween-80 + alcohol) was 101 % of control; the T/C (dose: 75.0 mg/kg/injection, schedule: Q01DX009 (ip), vehicle: saline + Tween-80 + alcohol) is 102 % of control; the T/C (dose: 150.0 mg/kg/injection, schedule: Q01DX009 (ip), vehicle: saline + Tween-80 + alcohol) was 99 % of control.
In the case of `O=[N+]([O-])c1ccc(S(=O)(=O)Nc2c([N+](=O)[O-])cc([N+](=O)[O-])c3ccccc23)cc1`, the T/C is 92 % of control (dose: 50.0 mg/kg/injection, schedule: Q04DX003 (ip), vehicle: saline with Tween-80); 95 % of control (dose: 100.0 mg/kg/injection, schedule: Q04DX003 (ip), vehicle: saline with Tween-80); 105 % of control (dose: 200.0 mg/kg/injection, schedule: Q04DX003 (ip), vehicle: saline with Tween-80).
For the molecule `CNc1nnnc2c1sc1ccccc12`, the T/C was 105 % of control (dose: 100.0 mg/kg/injection, schedule: Q01DX001 (ip), vehicle: saline with Tween-80); 102 % of control (dose: 200.0 mg/kg/injection, schedule: Q01DX001 (ip), vehicle: saline with Tween-80); 104 % of control (dose: 400.0 mg/kg/injection, schedule: Q01DX001 (ip), vehicle: saline with Tween-80).
On to `Clc1ccc(SSN2CCCCC2)cc1`, for which the T/C is 92 % of control (dose: 50.0 mg/kg/injection, schedule: Q01DX009 (ip), vehicle: saline); 97 % of control (dose: 100.0 mg/kg/injection, schedule: Q01DX009 (ip), vehicle: saline); 96 % of control (dose: 200.0 mg/kg/injection, schedule: Q01DX009 (ip), vehicle: saline).
On to `CC1CN=C(c2ccc(NC(=O)c3cccc(C(=O)Nc4ccc(C5=NCC(C)N5)cc4)c3)cc2)N1` (centres undefined), for which the T/C runs as follows: (dose: 12.0 mg/kg/injection, schedule: Q01DX010 (ip), vehicle: saline) 118 % of control; (dose: 18.0 mg/kg/injection, schedule: Q01DX010 (ip), vehicle: saline) 154 % of control; (dose: 27.0 mg/kg/injection, schedule: Q01DX010 (ip), vehicle: saline) 159 % of control; (dose: 40.0 mg/kg/injection, schedule: Q01DX010 (ip), vehicle: saline) 172 % of control.
Take `N#CCC(=O)N/N=C(\CC1(O)C(=O)Nc2c(Cl)cc(Cl)cc21)c1cccc2ccccc12` (centres undefined): the T/C under setting [9] was 90 % of control; the T/C (dose: 25.0 mg/kg/injection, schedule: Q01DX005 (ip), vehicle: saline with Tween-80) is 89 % of control; the T/C under setting [4] is 88 % of control; the T/C under setting [5] was 88 % of control.
